Data on eight compounds can be found in US12286452B2, “Amphiphilic aminoglycoside connexin hemichannel inhibitors” (Texas Tech University System, priority 2018, dated 2025).

Converted amounts (≈) assume the structure as drawn. Where two headings read alike, the source gives them in different places.

Experiment [1] concerns the target T1, Cx43 HCs (Homo sapiens, UniProt P17302).
T1 construct: expressed in transfected cells
To be noted: cited from earlier work.

Experiment [2] has as its target T2, human Cx26 HCs (Homo sapiens, UniProt P29033).
T2 construct: expressed in transfected cells; host or cells: E. coli LB2003 (carrying pREP4), transformed with pQE-Cx26, IPTG-induced
As to the kind of experiment: Cx26-dependent growth complementation assay in E. coli LB2003. The format is cell-based. Here is the method: These derivatives were prepared by sequential benzylation and methylation followed by reduction of azido groups or hydrogenolysis of the Bn. […] Connexin HC inhibition was conducted using a bacteria-based assay of HC function^39. In this assay, Cx26 HCs are expressed in E. coli LB2003 cells, which lack three major K^+ uptake systems (Kdp, Kup and Trk), and as a result they cannot grow in low-[K^+] media^39-41. However, growth of this E. coli strain in low-[K^+] medium can be rescued by expression of K^+-permeable channels such as connexin HCs^39, 42-43. Under the conditions of the assay (LB2003 cells expressing HCs and grown in low-K^+ medium), inhibition of the HCs reduces or abolishes growth^39, 42-43. This is a simple assay where bacterial growth in multi-well plates can be followed by measuring the absorbance at 600 nm (OD600)^29.
LB2003 cells generously provided by Dr. E. P. Bakker (Osnabruk University, Osnabruk, Germany) were transformed with the plasmid pQE-Cx26 (human Cx26 into pQE60) and pREP4. […] LB2003 cells cannot grow in low-[K^+] media because of insufficient K^+ uptake for growth due to the knockout of three key K^+ transporters (Atrk, Akup, Akdp strain)^2-4. Details and validation of the growth complementation assay have been published recently^2. In brief, competent LB2003 containing the pREP4 plasmid were transformed with pQE-Cx26. These cells were grown overnight in Luria-Bertani medium (BD, Franklin Lakes, NJ, USA) supplemented with 100 mM KCl (to allow growth) and 0.4 mg/mL ampicillin, and then washed four times with NLM (see below), to remove residual K^+ from the Luria-Bertani medium. The washed cells were resuspended in complementation growth medium to an OD600 of 0.2. NLM contained 46 mM Na2HPO4, 23 mM NaH2PO4, 8 mM (NH4)2SO4, 0.4 mM MgSO4, 0.012 mM FeSO4, 1 mM sodium citrate, 44 mM glucose and 0.006 mM thiamine hydrochloride, pH 7.0. KLM had the same composition that NLM except for the equimolar replacement of Na^+ with K^+. For growth complementation we used NLM+4 mM KCl, and Cx26 expression was induced with 0.5 mM IPTG at the time of dilution to OD600=0.2. For the assay, the cells were seeded in 96-well plates and were incubated at 30° C., with shaking at 500 rpm. OD600 was measured after 18-h incubation in a plate reader. The initial OD600=0.2 was subtracted for growth calculations. Data are presented as means±SEM. Statistically significant differences were calculated by the Student t-test for unpaired data. Data were obtained from at least 3 independent experiments, with 3 repeats per experiment.

Experiment [3] has as its target T1, Cx43 HCs. Nature of the experiment: Cx43-dependent growth complementation assay in E. coli LB2003. The format is cell-based. The following applies: for Cx43/Cx26 Selectivity: IC50 Cx26/IC50 Cx43.
Experiment [4] relates to Staphylococcus aureus (ATCC25923). As to the kind of experiment: Antibacterial assay (MIC). The format is cell-based. The following applies: read-out: MIC against S. aureus. Here is the method: Antibacterial assay: The minimum inhibitory concentration (MIC) of the newly synthesized compounds was tested against E. coli (ATCC 25922) and Staphylococcus aureus (ATCC25923). The concentration of bacteria grown in Lysogeny Broth (LB) was adjusted to an absorbance at 600 nm (OD600) of 0.08-0.1 using LB. A series of 2-fold dilutions was made for each compound in 96-well plates (USA Scientific CC7682-7596) starting from 256 μg/mL, and then, 50 μL of the diluted bacteria suspension was transferred to the wells. Bacteria were incubated for 18-24 h at 35° C. before measuring OD600 to assess growth. Experiments for each compound were done at least in duplicates.

Experiment [5] concerns the target T2, human Cx26 HCs. The following applies: commercial aminoglycosides, the 16th table, adapted from ref. 1; cited from earlier work.
Setting [6] is: Table 3, read-out: Cx243% inhibition.
[7] abbreviates: first Table 2, read-out: IC50, inhibition of Cx26 by synthetic AGs.
[8] abbreviates: K46 members, the 20th table, read-out: IC50 (μM) against Cx43.
The mark [9] stands for this setting: commercial aminoglycosides, the 16th table, adapted from ref. 1, read-out: Cx43 IC50.
Setting [10] is: KI members, the 23rd table, read-out: Cx43 % inhibition.
Setting [11] is: Table 6, read-out: Cx43 (% inhibition).

T1 sequence (P17302 whole entry): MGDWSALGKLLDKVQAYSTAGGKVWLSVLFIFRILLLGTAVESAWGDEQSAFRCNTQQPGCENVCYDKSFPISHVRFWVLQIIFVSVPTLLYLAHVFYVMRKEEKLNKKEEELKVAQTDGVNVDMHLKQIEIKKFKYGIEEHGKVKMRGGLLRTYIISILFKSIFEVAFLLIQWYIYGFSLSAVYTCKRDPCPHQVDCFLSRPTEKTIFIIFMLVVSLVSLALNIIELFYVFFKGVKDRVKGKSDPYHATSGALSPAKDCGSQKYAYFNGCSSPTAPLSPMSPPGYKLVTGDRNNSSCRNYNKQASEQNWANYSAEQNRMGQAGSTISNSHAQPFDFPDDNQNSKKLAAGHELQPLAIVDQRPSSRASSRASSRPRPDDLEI

`NCC1O[C@H](OC2C(N)CC(N)C(OC3O[C@H](CO)C(O)C(N)[C@H]3O)C2O)C(O)[C@@H](O)[C@@H]1O` (stereo in doubt) [Kanamycin A, reference compound]: in experiment [1] (approximate, text b120, read-out: IC50 for inhibition of Cx43 HCs), the IC50 was about 50 µM. Also, in experiment [2] (Table 3), the inhibition at 15 µM was 49.7 ± 1.6% and the inhibition at 50 µM is 77.4 ± 1.8%. Further, in experiment [3] (setting [6]), the inhibition at 15 µM was 15.6 ± 1.4% and the inhibition at 50 µM amounted to 40.4 ± 1%.
For the compound `NCC1OC(OC2C(N)CC(N)C(OC3OC(COCc4cccc5ccccc45)C(OCc4cccc5ccccc45)C(N)C3O)C2O)C(O)C(O)C1O` (stereo not shown) [Compound 15, 4″,6″-Di-O-(1-naphthalenmethyl) kanamycin], in experiment [4], the minimal inhibitory concentration (MIC) stood at 64 mg/mL (≈ 83.7 mM). Besides, the IC50 in experiment [2] (setting [7]) stood at 6.6 ± 0.5 µM; in experiment [3] (setting [8]), 15 µM; in experiment [3] (the 12th table, Hill fit, mean ± SEM, some n = 1, read-out: Cx43 IC50), 15 µM. Besides, the “Cx43 Imax (maximal inhibition)” value in experiment [3] (the 12th table, Hill fit) is listed as 122%.
In the case of `NCC1OC(OC2C(N)CC(N)C(OC3OC(COCc4cccc(-c5ccccc5)c4)C(OCc4cccc(-c5ccccc5)c4)C(N)C3O)C2O)C(O)C(O)C1O` (stereo not shown) [Compound 16, 4″,6″-Di-O-(3-phenylbenzyl)-kanamycin], in experiment [4], the MIC turned out to be 16 mg/mL (≈ 19.6 mM). For the same compound, the IC50 in experiment [2] (setting [7]) was 6.2 ± 0.7 µM; in experiment [3] (setting [8]) it was 5.5 ± 2 µM; in experiment [3] (the 13th table, read-out: Cx43 IC50) it was 5.5 ± 2 µM. Moreover, in experiment [2] (the 13th table), the “Cx26 Imax” value came to 102 ± 2%. Also, the “Cx43 Imax” value in experiment [3] (the 13th table) was 121 ± 25%.
Consider `CN[C@@H]1[C@@H](O)[C@@H](O[C@@H]2[C@@H](O)[C@H](O[C@H]3O[C@H]([C@@H](C)O)[C@@H](O)[C@H](O)[C@H]3N)[C@@H](N)C[C@H]2N)OC[C@]1(C)O` [Compound G418, G418], for which the half-inhibitory concentration (IC50) was 3 ± 0.8 µM in experiment [1] (setting [9]) and 0.44 ± 0.06 µM in experiment [5]. For the same compound, in experiment [3] (the 16th table), the “Cx43/Cx26 Selectivity” value was 0.20.
Regarding `NC1CC(N)C(O[C@H]2OC(CNC(=O)c3ccccc3-c3c4ccc(=O)cc-4oc4ccc(O)cc34)[C@@H](O)C(O)C2O)[C@H](O)C1OC1O[C@H](CO)C(O)C(N)[C@H]1O` (stereo partly shown) [KI10], the inhibition at 15 µM in experiment [2] (Table 3) was 22.3 ± 6.9%; in experiment [2] (Table 6), 22.3 ± 6.9%; in experiment [3] (setting [10]), 56.8 ± 8.8%; in experiment [3] (setting [6]), 56.8 ± 8.8%; in experiment [3] (setting [11]), over 50%. Moreover, the inhibition at 50 µM is 79.6 ± 3.5% in experiment [2] (Table 3); 79.6 ± 3.5% in experiment [2] (Table 6); 83.4 ± 1.1% in experiment [3] (setting [10]); 83.4 ± 1.1% in experiment [3] (setting [6]); 83.4 ± 1.1% in experiment [3] (setting [11]). Also, the IC50 stood at 12.7 ± 2.2 µM in experiment [2] (Table 7, read-out: Cx26 IC50) and 8.9 ± 3.7 µM in experiment [3] (Table 7, read-out: Cx43 IC50). Besides, in experiment [3] (Table 7), the “Cx43/Cx26 Selectivity” value was 1.42.
On to `NC[C@H]1O[C@H](O[C@H]2[C@H](O)[C@@H](O[C@H]3O[C@H](CO)[C@@H](O)[C@H](N)[C@H]3O)[C@H](N)C[C@@H]2N)[C@H](N)[C@@H](O)[C@@H]1O` [Kanamycin B], for which the IC50 is 24 ± 2 µM in experiment [1] (setting [9]) and 3.6 ± 0.9 µM in experiment [5]. In addition, the “Cx43/Cx26 Selectivity” value in experiment [3] (the 16th table) was found to be 0.15.
Turning to `NC[C@H]1O[C@H](O[C@H]2[C@H](O[C@@H]3O[C@H](CO)[C@@H](O)[C@H]3O)[C@@H](O)[C@H](N)C[C@@H]2N)[C@H](N)[C@@H](O)[C@@H]1O` [Ribostamycin], the results for the IC50 in experiment [1] (setting [9]) and in experiment [5] were over 200 µM and over 100 µM, respectively.
Take Neomycin: the IC50 in experiment [1] (setting [9]) was 45 ± 9 µM; in experiment [5] it was 7.4 ± 1.3 µM. The “Cx43/Cx26 Selectivity” value in experiment [3] (the 16th table) is listed as 0.16.

One may read the IC50 as the midpoint of a concentration-inhibition curve. As usually defined, the inhibition is the percentage by which the read-out fell short of the control. As a reminder, the MIC is the smallest concentration in the dilution series that meets the test's criterion for growth inhibition.
